From BindingDB's records for PubMed 36966976 (Csir-Indian Institute of Chemical Technology (CSIR-IICT), 2023)

Biological target: Alpha-synuclein (Homo sapiens, UniProt P37840)

OCCOC(=C\C=C1N(c2ccccc2)c2cc3ccccc3cc2N1c1ccccc1)/C=C/c1n(-c2ccccc2)c2cc3ccccc3cc2[n+]1-c1ccccc1
Kd: 3.8 nM
